Test results taken from patent US6596711B1, “(Aminopropyl)methylphosphinic acids” (AstraZeneca AB, priority 1999, dated 2003).

melting point: 78 to 84 °C
Structure (SMILES): CP(=O)(O)CC(F)CN (stereo not shown)
